The text below walks through data of PubChem BioAssay AID256 (DTP/NCI, 2004).

The test system of this assay is CD2F1 mice, L1210 leukemia ip, survival T/C. As to the kind of experiment: NCI In Vivo Anticancer Drug Screen. Data for tumor model L1210 Leukemia (intraperitoneal) in CD2F1 (CDF1) mice. To be noted: higher = longer survival. The method in brief: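 In this screen, transplantable tumors were grown in mice given either the compound or its vehicle. Results were expressed as the treated measurement relative to the control measurement.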

Setting [1] is: endpoint: mean survival time, dose: 100.0 mg/kg/injection, schedule: Q01DX001 (ip), vehicle: saline with Tween-80.
Where [2] appears, read: endpoint: mean survival time, dose: 100.0 mg/kg/injection, schedule: Q01DX009 (ip), vehicle: saline.
The mark [3] stands for this setting: endpoint: mean survival time, dose: 100.0 mg/kg/injection, schedule: Q04DX003 (ip), vehicle: saline with Tween-80.
Where [4] appears, read: endpoint: mean survival time, dose: 200.0 mg/kg/injection, schedule: Q01DX001 (ip), vehicle: saline with Tween-80.
Where [5] appears, read: endpoint: mean survival time, dose: 200.0 mg/kg/injection, schedule: Q04DX003 (ip), vehicle: saline with Tween-80.
Setting [6] is: endpoint: mean survival time, dose: 400.0 mg/kg/injection, schedule: Q01DX001 (ip), vehicle: saline with Tween-80.
The mark [7] stands for this setting: endpoint: mean survival time, dose: 400.0 mg/kg/injection, schedule: Q04DX003 (ip), vehicle: saline with Tween-80.
Setting [8] is: endpoint: mean survival time, dose: 100.0 mg/kg/injection, schedule: Q01DX001 (ip), vehicle: saline.
[9] abbreviates: endpoint: mean survival time, dose: 200.0 mg/kg/injection, schedule: Q01DX001 (ip), vehicle: saline.
Setting [10] is: endpoint: mean survival time, dose: 25.0 mg/kg/injection, schedule: Q01DX009 (ip), vehicle: saline with Tween-80.
The mark [11] stands for this setting: endpoint: mean survival time, dose: 50.0 mg/kg/injection, schedule: Q01DX009 (ip), vehicle: saline with Tween-80.
Setting [12] is: endpoint: mean survival time, dose: 100.0 mg/kg/injection, schedule: Q01DX009 (ip), vehicle: saline with Tween-80.
The mark [13] stands for this setting: endpoint: mean survival time, dose: 100.0 mg/kg/injection, schedule: Q04DX003 (ip), vehicle: Klucel (hydroxypropylcellulose) (HPC).
The mark [14] stands for this setting: endpoint: mean survival time, dose: 200.0 mg/kg/injection, schedule: Q01DX009 (ip), vehicle: saline with Tween-80.
Setting [15] is: endpoint: mean survival time, dose: 400.0 mg/kg/injection, schedule: Q01DX009 (ip), vehicle: saline with Tween-80.
[16] abbreviates: endpoint: mean survival time, dose: 200.0 mg/kg/injection, schedule: Q04DX003 (ip), vehicle: Klucel (hydroxypropylcellulose) (HPC).
Where [17] appears, read: endpoint: mean survival time, dose: 400.0 mg/kg/injection, schedule: Q04DX003 (ip), vehicle: Klucel (hydroxypropylcellulose) (HPC).

Values joined by “and” are separate entries in the source; they are usually repeats but may differ in a detail not shown here. Equal values may be shown once. Toxic doses and inconclusive results are not listed.

For `O=C1OC(=O)C2C3C=CC(C3)C12` (centres undefined), the T/C is, setting by setting: (endpoint: mean survival time, dose: 12.5 mg/kg/injection, schedule: Q04DX003 (ip), vehicle: saline with Tween-80) 95 % of control; (endpoint: mean survival time, dose: 25.0 mg/kg/injection, schedule: Q04DX003 (ip), vehicle: saline with Tween-80) 101 % of control; (endpoint: mean survival time, dose: 50.0 mg/kg/injection, schedule: Q04DX003 (ip), vehicle: saline with Tween-80) 95 % of control; under setting [1], 98 % of control; under setting [2], 102 % of control; under setting [3], 101 % of control. In addition, the T/C is, setting by setting: under setting [4], 100 % of control; (endpoint: mean survival time, dose: 200.0 mg/kg/injection, schedule: Q01DX009 (ip), vehicle: saline) 96 % of control; under setting [5], 102 % of control; under setting [6], 93 % of control; (endpoint: mean survival time, dose: 400.0 mg/kg/injection, schedule: Q01DX009 (ip), vehicle: saline) 90 % of control; under setting [7], 102 % of control.
`CN(C)S(=O)(=O)Oc1cccc([N+](=O)[O-])c1`: the T/C under setting [3] was 96 % of control.
For the compound `CNC(=S)NC1CCCCC1`, the T/C is 97 % of control under setting [3], 100 % of control under setting [5] and 89 % of control under setting [7].
Regarding `O=C(Nc1ccc(S(=O)(=O)F)cc1)c1ccc([N+](=O)[O-])cc1`, the T/C was 105 % of control under setting [8]; 100 % of control under setting [9]; 100 % of control (endpoint: mean survival time, dose: 400.0 mg/kg/injection, schedule: Q01DX001 (ip), vehicle: saline).
Turning to `CCCCCCCCC[n+]1ccc(C(N)=O)cc1`, the T/C reads like this: under setting [10], 103 % of control; under setting [11], 95 % of control; under setting [12], 95 % of control.
On to `Nc1cccc(NC=O)c1`, for which, under setting [13], the T/C is 102 % of control.
Regarding `CCC(C#N)C1=CCCCCC1` (centres undefined), the T/C under setting [3] was 103 % of control.
As to `Nc1cc2c(cc1Br)-c1ccccc1C2Br` (centres undefined), the T/C under setting [3] is 94 % of control and the T/C under setting [7] was 92 % of control.
For `CC1(C)CCC2(C)CC(C(=O)O)C(=O)C=C2C1` (centres undefined), the T/C reads like this: under setting [1], 100 % of control; under setting [4], 92 % of control; under setting [6], 96 % of control.
Consider `CCN(CC)CCSC(=O)c1ccccc1`, for which the T/C runs as follows: (endpoint: mean survival time, dose: 50.0 mg/kg/injection, schedule: Q01DX009 (ip), vehicle: saline) 103 % of control; under setting [2], 103 % of control.
As to `COC(=O)c1cccc2c1OCO2`, the T/C reads like this: under setting [12], 101 % of control; under setting [3], 100 % of control; under setting [14], 101 % of control; under setting [5], 100 % of control; under setting [15], 101 % of control; under setting [7], 103 % of control.
For the compound `CNC(=S)NNc1ccccc1Cl`, the T/C was 98 % of control (endpoint: mean survival time, dose: 12.5 mg/kg/injection, schedule: Q01DX009 (ip), vehicle: other); 94 % of control (endpoint: mean survival time, dose: 25.0 mg/kg/injection, schedule: Q01DX009 (ip), vehicle: other); 88 % of control (endpoint: mean survival time, dose: 50.0 mg/kg/injection, schedule: Q01DX009 (ip), vehicle: other); 104 % of control (endpoint: mean survival time, dose: 100.0 mg/kg/injection, schedule: Q01DX009 (ip), vehicle: other); 104 % of control (endpoint: mean survival time, dose: 200.0 mg/kg/injection, schedule: Q01DX009 (ip), vehicle: other).
As for `COc1ccc2[nH]c3c(c2c1)CSc1ccccc1-3`, the T/C (endpoint: mean survival time, dose: 100.0 mg/kg/injection, schedule: Q04DX003 (ip), vehicle: acetone) is 94 % of control; the T/C (endpoint: mean survival time, dose: 200.0 mg/kg/injection, schedule: Q04DX003 (ip), vehicle: acetone) was 105 % of control; the T/C (endpoint: mean survival time, dose: 400.0 mg/kg/injection, schedule: Q04DX003 (ip), vehicle: acetone) was 100 % of control.
Consider `O=c1nc(NC2CC2)ccn1C1OC(CO)C(O)C1O` (centres undefined), for which the T/C reads like this: (endpoint: median survival time, dose: 12.5 mg/kg/injection, schedule: Q01DX005 (ip), vehicle: water) 97 % of control; (endpoint: median survival time, dose: 25.0 mg/kg/injection, schedule: Q01DX005 (ip), vehicle: water) 106 % of control; (endpoint: median survival time, dose: 50.0 mg/kg/injection, schedule: Q01DX005 (ip), vehicle: water) 107 % of control; (endpoint: median survival time, dose: 100.0 mg/kg/injection, schedule: Q01DX005 (ip), vehicle: water) 107 % of control; (endpoint: median survival time, dose: 200.0 mg/kg/injection, schedule: Q01DX005 (ip), vehicle: water) 101 % of control.
In the case of `O=CNO`, the T/C runs as follows: under setting [1], 108 % of control; under setting [4], 104 % of control; under setting [6], 104 % of control.
Take `Cc1cccc(C)c1NC(=O)c1ccccc1C(=O)O`: the T/C under setting [12] was 92 % of control; the T/C under setting [3] is 98 % of control; the T/C under setting [14] was 92 % of control; the T/C under setting [5] is 98 % of control; the T/C under setting [15] was 97 % of control; the T/C under setting [7] is 96 % of control.
In the case of `CCCCCCCCC(Sc1n[nH]c(=O)[nH]c1=O)C(=O)OCC` (centres undefined), the T/C was 101 % of control (endpoint: mean survival time, dose: 12.5 mg/kg/injection, schedule: Q01DX005 (ip), vehicle: distilled water + Tween-80); 95 % of control (endpoint: mean survival time, dose: 25.0 mg/kg/injection, schedule: Q01DX005 (ip), vehicle: distilled water + Tween-80); 95 % of control (endpoint: mean survival time, dose: 50.0 mg/kg/injection, schedule: Q01DX005 (ip), vehicle: distilled water + Tween-80); 100 % of control (endpoint: mean survival time, dose: 100.0 mg/kg/injection, schedule: Q01DX005 (ip), vehicle: distilled water + Tween-80); 95 % of control (endpoint: mean survival time, dose: 200.0 mg/kg/injection, schedule: Q01DX005 (ip), vehicle: distilled water + Tween-80).
As for `O=C(O)c1cccc2c1C(=O)c1ccccc1C2=O`, the T/C is, setting by setting: under setting [13], 117 % of control; under setting [16], 101 % of control; under setting [17], 109 % of control.
With `CCOC(=O)c1cc(=O)c2cc(S(=O)(=O)F)ccc2[nH]1`, the T/C reads like this: under setting [13], 103 % of control; under setting [16], 103 % of control; under setting [17], 100 % of control.
Regarding `CCOC(=O)C(CCC#N)(CCC#N)C(=O)OCC`, the T/C reads like this: under setting [12], 91 % of control; under setting [3], 96 % of control; under setting [14], 94 % of control; under setting [5], 102 % of control; under setting [15], 94 % of control; under setting [7], 104 % of control.
As for `Cc1ccc(NC(=O)N(CCCl)N=O)cc1Cl`, for the setting “endpoint: mean survival time, dose: 13.0 mg/kg/injection, schedule: Q01DX001 (ip), vehicle: carboxymethylcellulose (CMC)”, the T/C is 176 % of control.
As for `COC(=O)C(C(=O)OC)C(Br)(C(=O)OC)C(=O)OC`, the T/C runs as follows: under setting [12], 98 % of control; under setting [3], 91 % of control; under setting [14], 103 % of control; under setting [5], 91 % of control; under setting [7], 95 % of control.
As to `CC(=O)N1C(=O)C2(Nc3cccnc3N2)c2ccccc21` (centres undefined), the T/C reads like this: (endpoint: mean survival time, dose: 100.0 mg/kg/injection, schedule: Q04DX003 (ip), vehicle: saline sonified) 97 % of control; (endpoint: mean survival time, dose: 200.0 mg/kg/injection, schedule: Q04DX003 (ip), vehicle: saline sonified) 88 % of control; (endpoint: mean survival time, dose: 400.0 mg/kg/injection, schedule: Q04DX003 (ip), vehicle: saline sonified) 103 % of control.
In the case of `Cc1cn(C2CC3O[P@@](=S)(Nc4ccccc4)OCC3O2)c(=O)[nH]c1=O` (some centres undefined), the T/C (endpoint: median survival time, dose: 11.5 mg/kg/injection, schedule: Q01DX005 (ip), vehicle: saline with Tween-80) was 108 % of control; the T/C (endpoint: median survival time, dose: 23.0 mg/kg/injection, schedule: Q01DX005 (ip), vehicle: saline with Tween-80) was 103 % of control; the T/C (endpoint: median survival time, dose: 46.0 mg/kg/injection, schedule: Q01DX005 (ip), vehicle: saline with Tween-80) was 98 % of control.
Turning to `Cc1ccc2c(c1)N=C(Nc1ccccc1)N=S2(C)=O` (centres undefined), the T/C is, setting by setting: (endpoint: mean survival time, dose: 6.25 mg/kg/injection, schedule: Q01DX009 (ip), vehicle: saline with Tween-80) 96 % of control and 104 % of control; (endpoint: mean survival time, dose: 12.5 mg/kg/injection, schedule: Q01DX009 (ip), vehicle: saline with Tween-80) 100 % of control and 107 % of control; under setting [10], 104 % of control; under setting [11], 90 % of control and 106 % of control; under setting [12], 101 % of control; under setting [14], 102 % of control.
For `CC#CC(=O)OC`, the T/C was 104 % of control under setting [11], 104 % of control under setting [12] and 96 % of control under setting [14].
As for `COC(=O)c1cc(-c2ccc(Cl)cc2)nc2cc(Cl)c(OC)cc12`, the T/C reads like this: under setting [8], 92 % of control; under setting [9], 87 % of control.
